Molecular target: K-Ras(G12C) (Homo sapiens, UniProt P01116, G12C)
Assay: disulphide tethering, intact protein mass spectrometry
Format: binding

Chain of K-Ras(G12C) (P01116 1-169 isoform P01116-2 G12C): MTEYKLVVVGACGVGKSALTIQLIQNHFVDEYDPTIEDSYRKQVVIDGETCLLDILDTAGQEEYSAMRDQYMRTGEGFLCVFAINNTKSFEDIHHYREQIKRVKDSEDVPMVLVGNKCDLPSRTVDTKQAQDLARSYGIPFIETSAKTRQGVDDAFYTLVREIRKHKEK

`CN(C)CCSSCCNC(=O)C1CCN(C(=O)CSc2ccc(Cl)cc2)CC1` [6H05] was tested. Which “% modification” value did it give?
Its value is 94 ± 1 % modification.

From PMC4274051 (Nature, 2013)
